Experimental data: paper PMC9554870, “Mesoporous Silica Nanoparticles Improve Oral Delivery of Antitubercular Bicyclic Nitroimidazoles” (ACS Biomaterials Science & Engineering, 2021)
≈ marks a conversion by molar mass, not a printed value.

What was measured:
[1] = Aqueous (saturated water) solubility by LC-UV; assay type: physicochemical; settings: deionized water, 37 °C, encapsulated samples 10% w/w, n = 3
Protocol: The solubility of pretomanid and MCC7433 was measured before and after loading into nanoparticles by using Shimadzu LCMS-2020 (Kyoto, Japan) with a variable-wavelength UV–visible detector. Briefly, 0.5 mg of compound equivalent particles (or 5 mg of 10 wt % compound loaded nanoparticles) were dispersed in 750 μL of deionized water. Samples were incubated at 37 °C on a rotator for 24 and 48 h. Samples were then centrifuged at 12 000 rpm for 20 min. The supernatant was collected and centrifuged for another round at 12 000 rpm, 20 min before being analyzed by LC-UV. The mobile phase was 0.05% formic acid in water (solvent A) and 0.05% formic acid in acetonitrile (solvent B). LC-MS condition: column Zorbax Eclipse XDB-Phenyl, 3.0 × 100 mm, 3.5 μm; column temperature: 40 °C; flow: 1 mL/min; injection volume: 5 μL; gradient timetable: 0.00 min, 5% B; 0.50 min, 5% B; 3.00 min, 100% B; 4.2 min, 100% B; 5.00 min, 5% B.

[2] = in vivo; settings: male, CD-1, mouse, po, 20 mg/kg
[3] = system: M. tuberculosis H37Rv strain; assay: M. tuberculosis H37Rv minimum inhibition assay (resazurin reduction microplate assay); assay type: cell-based; settings: Mycobacterium tuberculosis, lowest concentration with >90% inhibition of growth, free compounds predissolved in DMSO, nanoformulations dispersed in assay media, n = 4–6, read-out: MIC90%Inhib H37Rv
[4] = set-up: method as in PMID 30562958; settings: vorinostat encapsulated within pristine and functionalized MCM-41; cited from earlier work

O=c1c2nc([N+](=O)[O-])cn2ccn1Cc1ccc(OC(F)(F)F)cc1 [MCC7433]
solubility at 24 h [1]: 0.33 µg/mL (≈ 0.932 µM) | Tmax [2]: 5.33 h | half-life [2]: 3.21 h | MIC90 [3]: 0.25 to 0.5 µg/mL (≈ 0.706 to 1.41 µM)

O=[N+]([O-])c1cn2c(n1)OC[C@@H](OCc1ccc(OC(F)(F)F)cc1)C2 [pretomanid]
solubility at 24 h [1]: 15.5 µg/mL (≈ 43.1 µM) | MIC90 [3]: 0.25 µg/mL (≈ 0.696 µM)

O=C(CCCCCCC(=O)Nc1ccccc1)NO [vorinostat]
fold improvement of solubility compared to the free drug [4]: 2.6–4.3 fold

NNC(=O)c1ccncc1 [isoniazid]
MIC90 [3]: 0.04 µg/mL (≈ 0.292 µM)
